# Assay results: PubChem BioAssay AID342 (DTP/NCI, 2004)
# Where “and” joins values, the source holds several entries; their conditions need not be identical. Identical values can stand only once. Square brackets hold non-standard residues; d marks the D form. Peptide text beside a SMILES is read from it. ξ: configuration not given here. Ac5c = NC1(C(=O)O)CCCC1; ξS = NC(CO)C(=O)O
# Test system: Swiss mice, Sarcoma 180 sc, mean tumor weight T/C
# Test: NCI In Vivo Anticancer Drug Screen. Data for tumor model Sarcoma 180 (subcutaneous) in Swiss mice
# Conditions: endpoint: mean tumor weight, higher = larger tumour
# In short: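 Mice bearing transplanted tumors were treated with compound, and survival or tumor size was measured. Values are expressed as the treated-group measurement (T) divided by the vehicle-treated control measurement (C).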
# [1] = dose: 7.5 mg/kg/injection, schedule: Q01DX007 (ip), vehicle: other
# [2] = dose: 125.0 mg/kg/injection, schedule: Q01DX007 (ip), vehicle: carboxymethylcellulose (CMC)
# [3] = dose: 750.0 mg/kg/injection, schedule: Q01DX007 (ip), vehicle: saline
compound,measurement,setting,value
O=C(Nc1ccc(N=Nc2ccc(S(=O)(=O)O)cc2)cc1)c1ccc(N=Nc2c(O)ccc3cc(S(=O)(=O)O)ccc23)cc1,T/C,"dose: 12.5 mg/kg/injection, schedule: Q01DX007 (ip), vehicle: water",103 % of control
same,T/C,"dose: 25.0 mg/kg/injection, schedule: Q01DX007 (ip), vehicle: water",84 % of control
same,T/C,"dose: 50.0 mg/kg/injection, schedule: Q01DX007 (ip), vehicle: water",67 % of control
[N-]=[N+]=NC1(C(=O)O)CCCC1,T/C,"dose: 66.0 mg/kg/injection, schedule: Q01DX007 (ip), vehicle: carboxymethylcellulose (CMC)",71 % of control
same,T/C,"dose: 100.0 mg/kg/injection, schedule: Q01DX007 (ip), vehicle: carboxymethylcellulose (CMC)",60 % of control
same,T/C,"dose: 225.0 mg/kg/injection, schedule: Q01DX007 (ip), vehicle: carboxymethylcellulose (CMC)",63 % of control
Brc1ccc(-c2csc(Nc3nc(-c4ccc(Br)cc4)cs3)n2)cc1,T/C,"dose: 200.0 mg/kg/injection, schedule: Q01DX007 (ip), vehicle: carboxymethylcellulose (CMC)",56 % of control and 73 % of control
same,T/C,"dose: 300.0 mg/kg/injection, schedule: Q01DX007 (ip), vehicle: carboxymethylcellulose (CMC)",52 % of control and 60 % of control
same,T/C,"dose: 675.0 mg/kg/injection, schedule: Q01DX007 (ip), vehicle: carboxymethylcellulose (CMC)",31 % of control
NC(=O)c1cn(C2OC(CO)C(O)C2O)c2ncnc(N)c12 (stereo not drawn),T/C,"dose: 0.5 mg/kg/injection, schedule: Q01DX007 (ip), vehicle: carboxymethylcellulose (CMC)",87 % of control
CC(C)(S)C(N)C(=O)O (stereo not drawn),T/C,"dose: 500.0 mg/kg/injection, schedule: Q01DX007 (oral), vehicle: saline",122 % of control
same,T/C,"dose: 1000.0 mg/kg/injection, schedule: Q01DX007 (oral), vehicle: saline",118 % of control
CCCCCCCCCCCCCCCCCC1=NCCN1CCN,T/C,"dose: 22.0 mg/kg/injection, schedule: Q#A X014 (ip), vehicle: saline",74 % of control and 84 % of control
same,T/C,"dose: 50.0 mg/kg/injection, schedule: Q#A X014 (ip), vehicle: saline",33 % of control
CCOC(=O)C(CO)NC(=O)C1(NC(C)=O)CCCC1 (stereo not drawn) (Ac-[Ac5c]-[ξS]-OEt),T/C,"dose: 66.0 mg/kg/injection, schedule: Q01DX007 (ip), vehicle: water",97 % of control
same,T/C,"dose: 100.0 mg/kg/injection, schedule: Q01DX007 (ip), vehicle: water",94 % of control
same,T/C,"dose: 150.0 mg/kg/injection, schedule: Q01DX007 (ip), vehicle: water",83 % of control
same,T/C,"dose: 225.0 mg/kg/injection, schedule: Q01DX007 (ip), vehicle: water",74 % of control
O=C(CBr)c1ccc(Br)cc1,T/C,[1],63 % of control
same,T/C,"dose: 15.0 mg/kg/injection, schedule: Q01DX007 (ip), vehicle: other",49 % of control and 73 % of control
same,T/C,"dose: 20.0 mg/kg/injection, schedule: Q01DX007 (ip), vehicle: other",42 % of control
CC(=O)N(C)C,T/C,"dose: 62.0 mg/kg/injection, schedule: Q01DX007 (ip), vehicle: carboxymethylcellulose (CMC)",100 % of control
same,T/C,[2],95 % of control
same,T/C,"dose: 500.0 mg/kg/injection, schedule: Q01DX007 (ip), vehicle: carboxymethylcellulose (CMC)",65 % of control
same,T/C,[3],104 % of control
same,T/C,"dose: 1000.0 mg/kg/injection, schedule: Q01DX007 (ip), vehicle: saline",70 % of control
CCN(CC)c1ccc(/C=C/c2ccnc3ccccc23)cc1,T/C,"dose: 1.94 mg/kg/injection, schedule: Q01DX007 (ip), vehicle: carboxymethylcellulose (CMC)",77 % of control
same,T/C,"dose: 3.88 mg/kg/injection, schedule: Q01DX007 (ip), vehicle: carboxymethylcellulose (CMC)",66 % of control
same,T/C,"dose: 6.2 mg/kg/injection, schedule: Q01DX007 (ip), vehicle: other",63 % of control
same,T/C,[1],96 % of control
same,T/C,"dose: 7.75 mg/kg/injection, schedule: Q01DX007 (ip), vehicle: carboxymethylcellulose (CMC)",40 % of control
same,T/C,"dose: 7.75 mg/kg/injection, schedule: Q01DX007 (ip), vehicle: other",58 % of control
same,T/C,"dose: 10.0 mg/kg/injection, schedule: Q01DX007 (ip), vehicle: other",107 % of control
same,T/C,"dose: 10.33 mg/kg/injection, schedule: Q01DX007 (ip), vehicle: other",72 % of control
same,T/C,"dose: 12.0 mg/kg/injection, schedule: Q01DX007 (ip), vehicle: other",110 % of control
same,T/C,"dose: 12.31 mg/kg/injection, schedule: Q01DX007 (ip), vehicle: carboxymethylcellulose (CMC)",93 % of control and 110 % of control
same,T/C,"dose: 15.5 mg/kg/injection, schedule: Q01DX007 (ip), vehicle: other",90 % of control
same,T/C,"dose: 24.62 mg/kg/injection, schedule: Q01DX007 (ip), vehicle: carboxymethylcellulose (CMC)",59 % of control and 70 % of control
same,T/C,"dose: 49.25 mg/kg/injection, schedule: Q01DX007 (ip), vehicle: carboxymethylcellulose (CMC)",53 % of control
CC(=O)Nc1cc2c(cc1[N+](=O)[O-])-c1ccccc1C2O (stereo not drawn),T/C,"dose: 98.0 mg/kg/injection, schedule: Q01DX007 (ip), vehicle: other",100 % of control
same,T/C,"dose: 148.0 mg/kg/injection, schedule: Q01DX007 (ip), vehicle: other",120 % of control
same,T/C,"dose: 333.0 mg/kg/injection, schedule: Q01DX007 (ip), vehicle: other",65 % of control and 67 % of control
same,T/C,"dose: 333.0 mg/kg/injection, schedule: Q01DX007 (ip), vehicle: saline",81 % of control
same,T/C,"dose: 500.0 mg/kg/injection, schedule: Q01DX007 (ip), vehicle: other",25 % of control
same,T/C,"dose: 500.0 mg/kg/injection, schedule: Q01DX007 (ip), vehicle: saline",93 % of control
same,T/C,[3],64 % of control
O=C(N[C@H](CO)[C@H](O)c1ccc([N+](=O)[O-])cc1)C(Cl)Cl,T/C,[2],99 % of control
same,T/C,"dose: 250.0 mg/kg/injection, schedule: Q01DX007 (ip), vehicle: carboxymethylcellulose (CMC)",111 % of control and 112 % of control
same,T/C,"dose: 375.0 mg/kg/injection, schedule: Q#A X014 (ip), vehicle: carboxymethylcellulose (CMC)",45 % of control
same,T/C,"dose: 400.0 mg/kg/injection, schedule: Q01DX007 (ip), vehicle: carboxymethylcellulose (CMC)",76 % of control
same,T/C,"dose: 666.66 mg/kg/injection, schedule: Q01DX007 (ip), vehicle: carboxymethylcellulose (CMC)",105 % of control
same,T/C,"dose: 1000.0 mg/kg/injection, schedule: Q01DX007 (ip), vehicle: carboxymethylcellulose (CMC)",97 % of control
O=c1cccc2n1CC1CNC[C@H]2C1,T/C,"dose: 0.78 mg/kg/injection, schedule: Q01DX007 (ip), vehicle: saline",92 % of control
same,T/C,"dose: 1.56 mg/kg/injection, schedule: Q01DX007 (ip), vehicle: saline",97 % of control
same,T/C,"dose: 3.13 mg/kg/injection, schedule: Q01DX007 (ip), vehicle: saline",62 % of control and 87 % of control
same,T/C,"dose: 6.25 mg/kg/injection, schedule: Q01DX007 (ip), vehicle: saline",64 % of control
O=C1c2ccccc2C(=O)c2c1c(O)c1ccccc1c2O,T/C,"dose: 100.0 mg/kg/injection, schedule: Q#A X014 (im), vehicle: other",87 % of control
same,T/C,"dose: 100.0 mg/kg/injection, schedule: Q#A X014 (sc), vehicle: other",70 % of control
same,T/C,"dose: 200.0 mg/kg/injection, schedule: Q#A X014 (im), vehicle: other",109 % of control
same,T/C,"dose: 200.0 mg/kg/injection, schedule: Q#A X014 (sc), vehicle: other",66 % of control
same,T/C,"dose: 300.0 mg/kg/injection, schedule: Q#A X014 (im), vehicle: other",114 % of control
same,T/C,"dose: 300.0 mg/kg/injection, schedule: Q#A X014 (sc), vehicle: other",64 % of control
same,T/C,"dose: 400.0 mg/kg/injection, schedule: Q#A X014 (im), vehicle: other",90 % of control
same,T/C,"dose: 400.0 mg/kg/injection, schedule: Q#A X014 (sc), vehicle: other",65 % of control
same,T/C,"dose: 500.0 mg/kg/injection, schedule: Q#A X014 (oral), vehicle: other",72 % of control
same,T/C,"dose: 750.0 mg/kg/injection, schedule: Q#A X014 (oral), vehicle: other",69 % of control
CC1=CC(O)C(O)C2(C)C1CC1OC(=O)C(O)C3C(C)C(O)C4(O)OCC13C42 (stereo not drawn),T/C,"dose: 5.0 mg/kg/injection, schedule: Q01DX007 (sc), vehicle: olive oil, sesame oil, peanut oil",90 % of control
same,T/C,"dose: 10.0 mg/kg/injection, schedule: Q01DX007 (sc), vehicle: olive oil, sesame oil, peanut oil",64 % of control
same,T/C,"dose: 20.0 mg/kg/injection, schedule: Q01DX007 (sc), vehicle: olive oil, sesame oil, peanut oil",96 % of control
same,T/C,"dose: 40.0 mg/kg/injection, schedule: Q01DX007 (sc), vehicle: olive oil, sesame oil, peanut oil",85 % of control and 86 % of control
same,T/C,"dose: 135.0 mg/kg/injection, schedule: Q01DX007 (sc), vehicle: olive oil, sesame oil, peanut oil",83 % of control
CN(C)[C@@H]1C(=O)C(C(N)=O)=C(O)[C@@]2(O)C(=O)C3=C(O)c4c(O)cccc4C[C@H]3C[C@@H]12,T/C,"dose: 20.0 mg/kg/injection, schedule: Q#A X014 (ip), vehicle: other",64 % of control
same,T/C,"dose: 30.0 mg/kg/injection, schedule: Q#A X014 (ip), vehicle: other",61 % of control
same,T/C,"dose: 45.0 mg/kg/injection, schedule: Q#A X014 (ip), vehicle: other",31 % of control
CC12CCC3C(CCC4CC=CCC43C)C1CCC2=O (stereo not drawn),T/C,"dose: 31.0 mg/kg/injection, schedule: Q01DX007 (sc), vehicle: steriod suspending solution",102 % of control
same,T/C,"dose: 62.5 mg/kg/injection, schedule: Q01DX007 (sc), vehicle: steriod suspending solution",105 % of control
same,T/C,"dose: 125.0 mg/kg/injection, schedule: Q01DX007 (sc), vehicle: steriod suspending solution",107 % of control and 123 % of control
same,T/C,"dose: 250.0 mg/kg/injection, schedule: Q01DX007 (sc), vehicle: steriod suspending solution",95 % of control and 96 % of control
